“And” between values parts separate entries of the source, which are not always exact repeats. Equal entries are not always repeated. Structures can show the parent of a compound that is named as a salt.
Key:
[1] = Parallel artificial membrane permeability assay for the blood–brain barrier (PAMPA-BBB); details: for AerExt log Pe: compound within AerExt donor solution; for AerExt log Pe / RootExt log Pe: 37 °C, 4 h, PBS pH 7.4, n.q. = not quantified in the acceptor plate; for RootExt log Pe: compound within RootExt donor solution; for Papp at 4 h: PAMPA, pH 7.4; for AerExt Cross BBB Potential: compound within AerExt; for AerExt Cross BBB Potential / RootExt Cross BBB Potential: PAMPA-BBB; for RootExt Cross BBB Potential: compound within RootExt
Experimental: The permeability of bioactive compounds from AerExt and RootExt across the BBB was assessed using the PAMPA-BBB assay, following the methodology described by [11]. Firstly, the BBB solution was prepared by dissolving 8 mg of PBL and 4 mg of cholesterol in 600 μL of n-dodecane. The initial donor solution was prepared by mixing 1 mL of AerExt or RootExt (at 10 mg mL^−1 in EtOH) with 1 mL of buffer (PBS, pH = 7.4, 10 mM). The filter membrane of the donor plate was coated with 5 μL of BBB solution. The acceptor plate was filled with 350 μL of buffer, and the donor plate was carefully placed on top of the acceptor plate to form a “sandwich-like” assembly. Subsequently, 350 μL of the donor solution was added to the donor plate, which was then covered and incubated at 37 °C for 4 h in the dark. After the incubation time, 300 μL of the solution was collected from each plate, transferred into separate vials, and evaporated using a SpeedVac system at 40 °C under 13 mbar pressure. The dried acceptor and donor solutions were dissolved in 50 μL of pure EtOH before being subjected to HPLC-Q-TOF-MS/MS and GC-Q-TOF-MS analysis. Permeability (Pe) across the PAMPA-BBB of the bioactive compound was calculated according to Equation (1) [54], with modifications in concentration rates.Pe = −ln[1 − CA(t)/Cequilibrium]/(A × (1/VD + 1/VA) × t)(1)
Cequilibrium was calculated according to Equation (2):Cequilibrium = [CD(t) × VD + CA(t) × VA]/(VD + VA)(2)
The HPLC-MS and GC-MS chromatograms were processed using the Agilent Mass Hunter Qualitative software (version B.10.0) to verify the retention time and exact mass of the compounds previously reported by us [25] and to extract their peak area to calculate the BBB permeability.

[2] = oil/water partition coefficient; Table 1; ref PubChem; cited from earlier work
[3] = system: HBMEC cells; assay: Blood–brain barrier transport study in HBMEC Transwell monolayer; details: for AerExt Te (%) ± SD 2 h / AerExt Te (%) ± SD 4 h / AerExt Te (%) ± SD 24 h: AerExt 40 µg mL^−1 apical; for AerExt Te (%) ± SD 2 h / AerExt Te (%) ± SD 4 h / AerExt Te (%) ± SD 24 h / RootExt Te (%) ± SD 2 h / RootExt Te (%) ± SD 4 h / RootExt Te (%) ± SD 24 h: n.q. = not quantified in the basolateral compartment; for RootExt Te (%) ± SD 2 h / RootExt Te (%) ± SD 4 h / RootExt Te (%) ± SD 24 h: RootExt 20 µg mL^−1 apical; for crossing of the HBMEC-BBB: AerExt 40 µg mL^−1 / RootExt 20 µg mL^−1, 2, 4, 24 h; for abundance in the apical compartment relative to the basolateral compartment (times higher) / Te of newly formed sulfated metabolites: after AerExt 40 µg mL^−1 treatment of HBMEC; for Te of newly formed sulfated metabolites: tentatively identified metabolites; for AerExt Te (%) ± SD 24 h / RootExt Te (%) ± SD 24 h / Te of newly formed sulfated metabolites: 24 h
Experimental: After the toxicity evaluation, the HBMEC cell line was also used as a simplified in vitro model of the BBB endothelium. Cells were seeded at a density of 1.6 × 10^5 cells/cm^2 in 12-well Transwell® plates (Corning Costar Corp., Corning, USA) with a pore diameter of 0.4 μm, pre-coated with type I rat tail collagen (100 μg mL^−1) [55]. The culture medium was renewed every 2 days until a monolayer cell structure was formed (see Supplementary Figure S2), and transport experiments were initiated after 10 days. In transport experiments, the medium in the apical (upper) compartment of the Transwell system was removed, and 0.5 mL of AerExt or RootExt at a concentration of 40 μg mL^−1 and 20 μg mL^−1, respectively, was added to these compartments (applied in duplicate). Also, a medium containing 0.4% (v/v) ethanol was used as control group. The basolateral (lower) compartments were filled with 1.5 mL of fresh culture medium. The cells were incubated under these conditions for 2, 4, and 24 h.
At the end of the incubation periods, media samples were collected from both chambers and lyophilized using a freeze-drying system from Martin Christ (Osterode am Harz, Germany). The samples were stored at −80 °C until analysis. The collected samples were subjected to chemical analyses to evaluate the ability of bioactive compounds contained in the extracts to pass through the cell monolayer.
The transport efficiency (Te) of bioactive substances was calculated based on Equation (3), described by [56]:Te (%) = CLower/CUpper × 100(3)
This calculation was performed to understand whether the compound crosses the cell layer and how efficiently it is transported.
For this purpose, 0.2 mL of cold water (H2O) was added to the samples, and the samples were vortexed for 10 s. Then, 0.8 mL of cold methanol was added and vortexed again for 10 s. Then, the mixture was centrifuged at 14,000 rpm for 5 min, and the supernatant was carefully transferred to a 1.5 mL Eppendorf tube and dried in a SpeedVac device at 40 °C and 13 bar pressure. Finally, the dried samples were resuspended in 25 μL of pure ethanol for their subsequent analysis.
For HPLC-Q-TOF MS/MS analysis, aliquots of 2 μL were injected into an HPLC model 1290 coupled to a Q-TOF series 6540 (Agilent Technologies, Waldbronn, Germany). For GC-Q-TOF MS analysis, aliquots of 1 μL were injected with a split ratio of 1:10 into a GC model 7890B coupled to a Q-TOF series 7200 (Agilent Technologies, Waldbronn, Germany). The HPLC-MS and GC-MS chromatograms were processed using the Agilent Mass Hunter Qualitative software (version B.10.0) to verify the retention time and exact mass of the compounds previously reported by us [25] and to extract their peak area to calculate the BBB permeability.

## CC(C)=CCCC(C)(O)[C@H]1CC[C@]2(C)[C@@H]1[C@H](O)C[C@@H]1[C@@]3(C)CC[C@H](O)C(C)(C)[C@@H]3CC[C@]12C (stereo in doubt) [Protopanaxadiol]
[1]
  AerExt log Pe: n.q.
  RootExt log Pe: n.q.
[2]
  log p: 7.2

## COc1ccc(O)c(C=O)c1 [2-hydroxy-5-methoxybenzaldehyde]
[2]
  log p: 1.8
[3]
  AerExt Te (%) ± SD 2 h: 18.8 ± 2.3%
  AerExt Te (%) ± SD 4 h: 9.1 ± 1.2%
  AerExt Te (%) ± SD 24 h: 11.0 ± 1.3%
  RootExt Te (%) ± SD 2 h: 31.8 ± 8.0%
  RootExt Te (%) ± SD 4 h: 36.3 ± 10.9%
  RootExt Te (%) ± SD 24 h: 164.8 ± 21.0%

## CC(=O)c1ccc(O)c(O)c1 [3,4-dihydroxyacetophenone]
[1]
  Papp at 4 h: 17.4 ×10⁻⁶ cm/s
[2]
  log p: 1.5

## CC12CCC3C(CC3(C)C)C(C)(CCC1=O)O2 (stereo not drawn) [3,7-epoxycaryophyllan-6-One]
[2]
  log p: 2.8

## O=Cc1cccc(C(=O)O)c1O [3-formylsalicylic acid]
[1]
  RootExt log Pe: −5.50
[2]
  log p: 1.0

## O=C(/C=C/c1ccc(O)c(O)c1)OC1C(O)CC2(O)CC1OC2=O (stereo not drawn) [4-caffeoylquinic acid lactone]
[1]
  AerExt Cross BBB Potential: + (log Pe < −6.5)
[2]
  log p: 0.4

## O=Cc1ccc(O)cc1 [4-hydroxybenzaldehyde]
[3]
  AerExt Te (%) ± SD 2 h: 23.3 ± 3.1%
  AerExt Te (%) ± SD 4 h: 18.5 ± 0.3%
  AerExt Te (%) ± SD 24 h: 49.4 ± 5.9%
  RootExt Te (%) ± SD 2 h: 62.1 ± 21.9%
  RootExt Te (%) ± SD 4 h: 57.5 ± 1.7%
  RootExt Te (%) ± SD 24 h: 184.6 ± 23.0%

## Cc1ncsc1CCO [4-methyl-5-thiazoleethanol]
[2]
  log p: 0.8

## O=c1ccc2cc(O)c(O)cc2o1 [6,7-dihydroxycoumarin]
[1]
  RootExt log Pe: n.q.
  RootExt Cross BBB Potential: –
[2]
  log p: 1.2

## CC(=O)OC[C@H]1O[C@@H](Oc2cc(O)c3c(=O)c(-c4ccc(O)cc4)coc3c2)[C@H](O)[C@@H](O)[C@@H]1O [6″-O-acetylgenistin]
[1]
  AerExt log Pe: n.q.
[2]
  log p: 0.9

## COc1cc2ccc(=O)oc2cc1O [7-hydroxy-6-methoxycoumarin]
[2]
  log p: 1.5
[3]
  AerExt Te (%) ± SD 2 h: 0.6 ± 0.2%
  AerExt Te (%) ± SD 4 h: 1.9 ± 0.1%
  AerExt Te (%) ± SD 24 h: 6.1 ± 1.5%
  RootExt Te (%) ± SD 2 h: n.q.
  RootExt Te (%) ± SD 4 h: n.q.
  RootExt Te (%) ± SD 24 h: n.q.

## CC1=C[C@H]2[C@@H](CC1=O)[C@H](C)C[C@H](O)[C@H]2C(C)C [8-hydroxyageraphorone]
[2]
  log p: 2.9
[3]
  AerExt Te (%) ± SD 2 h: n.q.
  AerExt Te (%) ± SD 4 h: n.q.
  AerExt Te (%) ± SD 24 h: n.q.
  RootExt Te (%) ± SD 2 h: n.q.
  RootExt Te (%) ± SD 4 h: n.q.
  RootExt Te (%) ± SD 24 h: 124.7 ± 16.9%

## C=C(C)C(O)CCC(C)C1CCC2(C)C3CCC4C(C)(C)C(O)CCC45CC35CCC12C (stereo not drawn) [9,19-cyclolanost-25-ene-3,24-diol]
[1]
  AerExt log Pe: −5.60
  AerExt Cross BBB Potential: + (log Pe < −6.5)
  RootExt log Pe: −5.79
  RootExt Cross BBB Potential: + (log Pe < −6.5)
[2]
  log p: 8.6

## C=CC(C)(O)CC/C=C(\C)CCC=C(C)C (stereo not drawn) [(E)-nerolidol]
[1]
  AerExt log Pe: n.q.
  RootExt log Pe: n.q.
[2]
  log p: 4.6

## C[C@@H]1CCCC2=CC[C@@H]3[C@@H](C3(C)C)[C@]21C [(–)-aristolene]
[1]
  AerExt log Pe: n.q.
  RootExt log Pe: n.q.
[2]
  log p: 4.7

## C=C1CC[C@H]2O[C@]2(C)CC[C@@H]2[C@@H]1CC2(C)C [(–)-caryophyllene oxide]
[2]
  log p: 3.6
[3]
  AerExt Te (%) ± SD 2 h: 4.3 ± 0.1%
  AerExt Te (%) ± SD 4 h: 8.6 ± 0.6%
  AerExt Te (%) ± SD 24 h: 8.8 ± 0.7%
  RootExt Te (%) ± SD 2 h: n.q.
  RootExt Te (%) ± SD 4 h: n.q.
  RootExt Te (%) ± SD 24 h: n.q.

## CC1=CCC[C@@H](C)[C@]12CC[C@@H](C(C)(C)O)C2 [Agarospirol]
[1]
  AerExt log Pe: n.q.
  RootExt log Pe: n.q.
[2]
  log p: 3.7

## CC1=C2CCC(C)C2CC(C(C)(C)O)CC1 (stereo not drawn) [Bulnesol]
[1]
  AerExt log Pe: n.q.
  RootExt log Pe: n.q.
[2]
  log p: 3.8

## COc1cc(-c2cc(=O)c3c(O)cc(O)cc3o2)ccc1O [Chrysoeriol]
[1]
  AerExt log Pe: n.q.
[2]
  log p: 1.7

## COc1ccc(-c2cc(=O)c3c(O)cc(O)cc3o2)cc1O [Diosmetin]
[1]
  Papp at 4 h: 148 ×10⁻⁶ cm/s
[2]
  log p: 1.7

## C=CCc1cc(OC)c(OC)c(OC)c1 [Elemicin]
[2]
  log p: 2.5

## CCOC(=O)/C=C/c1ccc(O)c(O)c1 [Ethyl caffeate]
[2]
  log p: 2.6

## COc1cc(/C=C/C(=O)O)ccc1O [Ferulic acid]
[1]
  RootExt log Pe: n.q.
[3]
  AerExt Te (%) ± SD 2 h: 1.9 ± 0.2%
  AerExt Te (%) ± SD 4 h: 1.9 ± 0.2%
  AerExt Te (%) ± SD 24 h: 19.8 ± 10.3%
  RootExt Te (%) ± SD 2 h: n.q.
  RootExt Te (%) ± SD 4 h: n.q.
  RootExt Te (%) ± SD 24 h: n.q.
[3]; listed as ferulic acid
  AerExt Te (%) ± SD 2 h: 2%
  AerExt Te (%) ± SD 24 h: 20%

## COc1cc2ccc(=O)oc2c(O)c1OC [Fraxidin]
[1]
  AerExt log Pe: −4.82
  RootExt log Pe: −4.81
[2]
  log p: 1.5

## CC(=O)OC(C)(C)[C@@H]1CC[C@H](C)C2=C(C1)[C@@H](C)CC2 [Guaiol acetate]
[1]
  AerExt log Pe: n.q.
  RootExt log Pe: −5.05
[2]
  log p: 3.6

## C[C@H]1CC[C@@H](C(C)(C)O)CC2=C1CC[C@@H]2C [Guaiol]
[1]
  AerExt log Pe: n.q.
  RootExt log Pe: n.q.
[2]
  log p: 3.1

## COc1cc2ccc(=O)oc2c(OC)c1O [Isofraxidin]
[2]
  log p: 1.5
[3]
  AerExt Te (%) ± SD 2 h: n.q.
  AerExt Te (%) ± SD 4 h: n.q.
  AerExt Te (%) ± SD 24 h: n.q.
  RootExt Te (%) ± SD 2 h: n.q.
  RootExt Te (%) ± SD 4 h: n.q.
  RootExt Te (%) ± SD 24 h: 30.5 ± 6.6%

## O=c1c(OC2OC(CO)C(O)C(O)C2O)c(-c2ccc(O)c(O)c2)oc2cc(O)cc(O)c12 (stereo not drawn) [Isoquercetrin]
[1]
  AerExt log Pe: n.q.
  AerExt Cross BBB Potential: –
  RootExt log Pe: n.q.
  RootExt Cross BBB Potential: –
[2]
  log p: −0.2

## CC(=O)O[C@@H]1[C@@H](OC(C)=O)[C@@H](O)[C@H](Oc2c(-c3ccc(O)cc3)oc3cc(O)cc(O)c3c2=O)O[C@H]1C [Kaempferol 3-O-(3″,4″-di-O-acetyl-a-L-rhamnopyranoside)]
[1]
  AerExt log Pe: n.q.
[2]
  log p: −0.9

## CC1(C)C[C@H](O)C[C@@]2(C)OC(=O)C=C12 [Loliolide]
[2]
  log p: 1.0
[3]
  AerExt Te (%) ± SD 2 h: 6.2 ± 0.7%
  AerExt Te (%) ± SD 4 h: 12.1 ± 0.8%
  AerExt Te (%) ± SD 24 h: 12.4 ± 0.8%

## O=c1cc(-c2ccc(O)c(O)c2)oc2cc(O[C@@H]3O[C@H](CO)[C@@H](O)[C@H](O)[C@H]3O)cc(O)c12 [Luteolin 7-glucoside]
[1]
  AerExt Cross BBB Potential: + (log Pe < −6.5)
  RootExt log Pe: n.q.
[2]
  log p: 0.5

## O=c1cc(-c2ccc(O)c(O)c2)oc2cc(O)cc(O)c12 [Luteolin]
[1]
  Papp at 4 h: 26.3 ×10⁻⁶ cm/s
[3]
  crossing of the HBMEC-BBB: could not cross the HBMEC-BBB

## C=CCc1cc(OC)c2c(c1)OCO2 [Myristicin]
[1]
  RootExt log Pe: n.q.
[2]
  log p: 2.9

## c1ccc2c(c1)[nH]c1cnccc12 [Norharman]
[2]
  log p: 3.2
[3]
  AerExt Te (%) ± SD 2 h: 2.3 ± 0.1%
  AerExt Te (%) ± SD 4 h: 5.3 ± 1.4%
  AerExt Te (%) ± SD 24 h: 4.1 ± 0.2%

## C[C@@H]1CC[C@H]2C(C(=O)O)=C[C@@H]3[C@@H](O)C(C)(C)C[C@@]132 [Pentalenic acid]
[2]
  log p: 2.7

## O=Cc1ccc(O)c(O)c1 [Protocatechuic aldehyde]
[2]
  log p: 1.3
[3]
  crossing of the HBMEC-BBB: could not cross the HBMEC-BBB
  AerExt Te (%) ± SD 2 h: n.q.
  AerExt Te (%) ± SD 4 h: n.q.
  AerExt Te (%) ± SD 24 h: n.q.
  RootExt Te (%) ± SD 2 h: n.q.
  RootExt Te (%) ± SD 4 h: n.q.

## O=C(O)[C@]1(O)C[C@@H](O)[C@@H](O)[C@H](O)C1 [Quinic acid]
[1]
  AerExt Cross BBB Potential: + (log Pe < −6.5)
[2]
  log p: −2.4

## CC1CCCC2(C)CCC(C(C)(C)O)C=C12 (stereo not drawn) [Rosifoliol]
[1]
  AerExt log Pe: n.q.
  RootExt log Pe: n.q.
[2]
  log p: 3.9

## CC1=CCC[C@]2(C)CCC(=C(C)C)C[C@@H]12 [Selina-3,7(11)-diene]
[1]
  AerExt log Pe: n.q.
  RootExt log Pe: n.q.
[2]
  log p: 4.4

## COc1cc(/C=C/C(=O)O)ccc1OS(=O)(=O)O [ferulic acid sulfate]
[3]
  abundance in the apical compartment relative to the basolateral compartment (times higher): ~40 times
  Te of newly formed sulfated metabolites: 2.3%

## C=C(C)[C@@H]1CC[C@@]2(C)CCC(=O)C(C)=C2C1 [α-cyperone]
[2]
  log p: 3.8
[3]
  AerExt Te (%) ± SD 2 h: 12.2 ± 0.1%
  AerExt Te (%) ± SD 4 h: 25.1 ± 1.4%
  AerExt Te (%) ± SD 24 h: 56.5 ± 6.5%
  RootExt Te (%) ± SD 2 h: 15.4 ± 2.6%
  RootExt Te (%) ± SD 4 h: 20.1 ± 12.0%
  RootExt Te (%) ± SD 24 h: 187% and 187.3 ± 12.5%

## apigenin sulfate
[3]
  abundance in the apical compartment relative to the basolateral compartment (times higher): ~40 times
  Te of newly formed sulfated metabolites: 2.7%
